Reference: ChEMBL document CHEMBL1201862, “PubChem BioAssay data set” (2004)
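Following 48 hours of exposure in 96-well plates, responses at five concentrations were used to interpolate endpoints linearly. GI50 marks 50% less growth.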 The source made the active and inactive calls. Cut-off read from the data, not from the text of the source: active = GI50 up to about 1.1 µM and inactive = higher.

What was measured:
Assay in all cases: inhibition of tumour cell growth, NCI panel, 48 h
NCI-H460 = system: NCI-H460
UO-31 = system: UO-31
SK-OV-3 = system: SK-OV-3
ACHN = system: ACHN
KM12 = system: KM12
SF-268 = system: SF-268
RPMI-8226 = system: RPMI-8226
A549 = system: A549
COLO 205 = system: COLO 205
IGROV-1 = system: IGROV-1
HOP-62 = system: HOP-62
MDA-MB-435 = system: MDA-MB-435
EKVX = system: EKVX
OVCAR-5 = system: OVCAR-5
NCI-H522 = system: NCI-H522
U-251 = system: U-251
MDA-MB-231 = system: MDA-MB-231
MOLT-4 = system: MOLT-4
SK-MEL-5 = system: SK-MEL-5
UACC-257 = system: UACC-257

SMILES	GI50 (NCI-H460)	GI50 (UO-31)	GI50 (SK-OV-3)	GI50 (ACHN)	GI50 (KM12)	GI50 (SF-268)	GI50 (RPMI-8226)	GI50 (A549)	GI50 (COLO 205)	GI50 (IGROV-1)	GI50 (HOP-62)	GI50 (MDA-MB-435)	GI50 (EKVX)	GI50 (OVCAR-5)	GI50 (NCI-H522)	GI50 (U-251)	GI50 (MDA-MB-231)	GI50 (MOLT-4)	GI50 (SK-MEL-5)	GI50 (UACC-257)
C[n+]1cc2cc(O)c(O)cc2c2ccc3cc(O)c(O)cc3c21.c1ccncc1	2.86 µM (inactive)	0.982 µM (active)	4.33 µM (inactive)	2.69 µM (inactive)	3.96 µM (inactive)	2.18 µM (inactive)	5.4 µM (inactive)	4.05 µM (inactive)	10.3 µM (inactive)	2.02 µM (inactive)	2.12 µM (inactive)	2.46 µM (inactive)	3.37 µM (inactive)	6.24 µM (inactive)	0.617 µM (active)	1.6 µM (inactive)	2.79 µM (inactive)	0.912 µM (active)	3.24 µM (inactive)	4.25 µM (inactive)
CC(C)(C)c1ccc(-c2nnc(SCc3ccc(Cl)cc3)n2-c2cccc(C(F)(F)F)c2)cc1	7.23 µM (inactive)	11.6 µM (inactive)	8.32 µM (inactive)	20.3 µM (inactive)	8.2 µM (inactive)	25 µM (inactive)	4.61 µM (inactive)	7.64 µM (inactive)	8.83 µM (inactive)	26.9 µM (inactive)	34.3 µM (inactive)	11.9 µM (inactive)	8.51 µM (inactive)	32.8 µM (inactive)	4.39 µM (inactive)	8.85 µM (inactive)	> 69 µM (inactive)	3.78 µM (inactive)	14 µM (inactive)	9.95 µM (inactive)
C=CCC1=CC2(OC)C(=O)C(OC)(OC)C1C1C(OC)(OC)C(=O)C(OC)=CC12CC=C (stereo not given)	> 100 µM (inactive)	> 100 µM (inactive)	67.8 µM (inactive)	> 100 µM (inactive)	> 100 µM (inactive)	> 100 µM (inactive)	> 100 µM (inactive)	> 100 µM (inactive)	> 100 µM (inactive)	> 100 µM (inactive)	> 100 µM (inactive)	> 100 µM (inactive)	> 100 µM (inactive)	> 100 µM (inactive)	> 100 µM (inactive)	> 100 µM (inactive)	> 100 µM (inactive)	> 100 µM (inactive)	> 100 µM (inactive)	> 100 µM (inactive)
Nc1nnc2oc3ccc4ccccc4c3cc1-2	27 µM (inactive)	32 µM (inactive)	67.5 µM (inactive)	20 µM (inactive)	29.7 µM (inactive)	34 µM (inactive)	30.5 µM (inactive)	47.3 µM (inactive)	23.6 µM (inactive)	30.6 µM (inactive)	> 100 µM (inactive)	24.3 µM (inactive)	33.2 µM (inactive)	57.1 µM (inactive)	24.4 µM (inactive)	35.9 µM (inactive)	24.5 µM (inactive)	27.7 µM (inactive)	27.3 µM (inactive)	28.2 µM (inactive)
CCOC(=O)C1=C(C)NC(=S)NC1c1cccc(O)c1 (stereo not given) [MONASTROL]	39.8 µM (inactive)	> 100 µM (inactive)	57.8 µM (inactive)	85.3 µM (inactive)	35 µM (inactive)	56.5 µM (inactive)	31 µM (inactive)	52.1 µM (inactive)	31.6 µM (inactive)	51.1 µM (inactive)	68.1 µM (inactive)	17.2 µM (inactive)	62.7 µM (inactive)	76.6 µM (inactive)	30.3 µM (inactive)	33.9 µM (inactive)	38.6 µM (inactive)	33.6 µM (inactive)	36.6 µM (inactive)	62.7 µM (inactive)
CCOC(=O)c1cc2cc(CSc3ccccc3)ccc2oc1=O	> 100 µM (inactive)	43.9 µM (inactive)	> 100 µM (inactive)	> 100 µM (inactive)	> 100 µM (inactive)	> 100 µM (inactive)	51.9 µM (inactive)	83.4 µM (inactive)	> 100 µM (inactive)	> 100 µM (inactive)	51.3 µM (inactive)	> 100 µM (inactive)	> 100 µM (inactive)	> 100 µM (inactive)	> 100 µM (inactive)	> 100 µM (inactive)	52.6 µM (inactive)	> 100 µM (inactive)	> 100 µM (inactive)	> 100 µM (inactive)
Cc1ccc([N+](=O)[O-])cc1NC1=NCCO1	> 100 µM (inactive)	> 100 µM (inactive)	> 100 µM (inactive)	> 100 µM (inactive)	> 100 µM (inactive)	> 100 µM (inactive)	> 100 µM (inactive)	> 100 µM (inactive)	> 100 µM (inactive)	> 100 µM (inactive)	> 100 µM (inactive)	> 100 µM (inactive)	> 100 µM (inactive)	> 100 µM (inactive)	> 100 µM (inactive)	> 100 µM (inactive)	> 100 µM (inactive)	> 100 µM (inactive)	> 100 µM (inactive)	> 100 µM (inactive)
Cc1nc2c(C)c3c([nH]c4ccc(Cl)cc43)c(C)c2c(O)c1C	2.07 µM (inactive)	3.66 µM (inactive)	16.5 µM (inactive)	2.75 µM (inactive)	10.4 µM (inactive)	16.1 µM (inactive)	3.3 µM (inactive)	2.82 µM (inactive)	5.53 µM (inactive)	5.27 µM (inactive)	4.23 µM (inactive)	6.34 µM (inactive)	22 µM (inactive)	6.76 µM (inactive)	4.16 µM (inactive)	5.73 µM (inactive)	2.44 µM (inactive)	1.63 µM (inactive)	11.8 µM (inactive)	13.9 µM (inactive)
COC(=O)/C=C\S/C(=C(/c1ccccc1)n1ccc(C(=O)OC)n1)c1ccccc1	66.4 µM (inactive)	13.7 µM (inactive)	19.9 µM (inactive)	7.48 µM (inactive)	> 100 µM (inactive)	20.5 µM (inactive)	38.9 µM (inactive)	36.6 µM (inactive)	> 100 µM (inactive)	58.6 µM (inactive)	15.8 µM (inactive)	45.4 µM (inactive)	26.5 µM (inactive)	> 100 µM (inactive)	24.5 µM (inactive)	13 µM (inactive)	9.82 µM (inactive)	56.6 µM (inactive)	29.5 µM (inactive)	45.3 µM (inactive)
CCOc1ccc(Nc2nc3c(s2)C(=O)c2ccccc2C3=O)cc1	15 µM (inactive)	14.4 µM (inactive)	19.7 µM (inactive)	14.5 µM (inactive)	13.7 µM (inactive)	3.63 µM (inactive)	3.85 µM (inactive)	19.5 µM (inactive)	19.8 µM (inactive)	11.9 µM (inactive)	17.7 µM (inactive)	1.79 µM (inactive)	20 µM (inactive)	21.6 µM (inactive)	7.5 µM (inactive)	7.64 µM (inactive)	2.33 µM (inactive)	5.08 µM (inactive)	2.27 µM (inactive)	10.4 µM (inactive)
CC(=O)O[C@H]1C#C/C=C\C#CC[C@@H]2C(=O)N(C(=O)OC(C)(C)C)[C@@H]12	0.25 µM (active)	2.91 µM (inactive)	62.4 µM (inactive)	4 µM (inactive)	53.7 µM (inactive)	16.8 µM (inactive)	16.2 µM (inactive)	16.6 µM (inactive)	22.2 µM (inactive)	3.45 µM (inactive)	7.11 µM (inactive)	71.6 µM (inactive)	85.7 µM (inactive)	> 100 µM (inactive)	12.8 µM (inactive)	17.7 µM (inactive)	55.3 µM (inactive)	0.199 µM (active)	18.2 µM (inactive)	28.4 µM (inactive)
CC(=O)OC1CC2CC(=O)CC1N2C (stereo not given)	> 100 µM (inactive)	> 100 µM (inactive)	> 100 µM (inactive)	> 100 µM (inactive)	> 100 µM (inactive)	> 100 µM (inactive)	68.7 µM (inactive)	> 100 µM (inactive)	> 100 µM (inactive)	> 100 µM (inactive)	> 100 µM (inactive)	> 100 µM (inactive)	> 100 µM (inactive)	> 100 µM (inactive)	> 100 µM (inactive)	> 100 µM (inactive)	> 100 µM (inactive)	> 100 µM (inactive)	> 100 µM (inactive)	> 100 µM (inactive)
CC(C)C[C@H]1[C@@H](OCc2ccccc2)COS(=O)N1[C@H](C)c1ccccc1 (stereo not given in full)	15.3 µM (inactive)	25.3 µM (inactive)	14.5 µM (inactive)	19.5 µM (inactive)	13.2 µM (inactive)	24.2 µM (inactive)	5.51 µM (inactive)	17.5 µM (inactive)	15.2 µM (inactive)	8.75 µM (inactive)	19.1 µM (inactive)	22.4 µM (inactive)	28.6 µM (inactive)	18.9 µM (inactive)	4.33 µM (inactive)	13.3 µM (inactive)	20.2 µM (inactive)	11.9 µM (inactive)	10.2 µM (inactive)	16 µM (inactive)
COc1ccc2/c(=C/c3ccc(N(C)C)cc3)c3cc(-c4ccccc4)[n+](C)n3c2c1	0.245 µM (active)	0.735 µM (active)	0.282 µM (active)	0.405 µM (active)	0.192 µM (active)	0.292 µM (active)	0.0263 µM (active)	0.261 µM (active)	0.0264 µM (active)	0.112 µM (active)	0.345 µM (active)	0.0875 µM (active)	0.817 µM (active)	0.52 µM (active)	0.153 µM (active)	< 0.0318 µM (active)	0.31 µM (active)	0.18 µM (active)	0.0392 µM (active)	0.135 µM (active)
